Data taken from patent US8426429B2, “2-amino-quinazoline derivatives useful as inhibitors of β-secretase (BACE)” (Jansssen Pharmaceutica N.V., priority 2004, dated 2013).
Values joined by “and” are separate entries in the source; they are usually repeats but may differ in a detail not shown here. Equal entries are not always repeated.

Molecular target: T1, β-secretase (BACE) (Homo sapiens, UniProt P56817)
T1 construct: purchased Panvera
Experiment: BACE FS1 % Inhibition Assay
Format: biochemical
Procedure: The following reagents were used in this assay: sodium acetate, PEG8000 (Sigma), DMSO, HEPES, FS1 substrate [[…]] […] The FS1-substrate stock solution was prepared in DMSO as a 10 mg/mL solution. The FS1-substrate working solution was prepared by diluting the 10 mg/mL stock solution with substrate assay buffer to a final concentration of 300 μg/mL. The β-secretase (BACE) working solution was prepared by diluting a 0.83 mg/mL BACE stock solution with enzyme assay buffer to a final concentration of 4 μg/mL. Test compounds were dissolved in DMSO to 10 mM. […] The screening procedure for this assay was as follows: 15 μL of BACE working solution was pipetted into each well of a 96-well plate. To each well was then pipetted 2 μL of test compound at the selected concentration. Test compound and BACE were then mixed with a pipettor and incubated for 20 min at room temperature. To each well was then added 10 μL of the FS1 substrate working solution. The plates were then incubated for 1 hour at room temperature. […] The procedure for the blank was as follows. 15 μL of assay buffer was pipetted into each well to be used as a blank control. To each well was then added 2 μL of vehicle and 10 μL of FS1-substrate working solution. The plates were then incubated for 1 hour at room temperature. […] The procedure for the positive control was as follows: 15 μL of BACE working solution was pipetted into each well to be used as a positive control. To each well was then pipetted 2 μL of vehicle. Vehicle and BACE were then mixed with a pipettor and incubated for 20 min at room temperature. To each well was then added 10 μL of the FS1 substrate working solution. The plates were then incubated for 1 hour at room temperature. […] For test compounds, % inhibition was determined at each concentration as follows: [formula]

T1 sequence (P56817 46-501): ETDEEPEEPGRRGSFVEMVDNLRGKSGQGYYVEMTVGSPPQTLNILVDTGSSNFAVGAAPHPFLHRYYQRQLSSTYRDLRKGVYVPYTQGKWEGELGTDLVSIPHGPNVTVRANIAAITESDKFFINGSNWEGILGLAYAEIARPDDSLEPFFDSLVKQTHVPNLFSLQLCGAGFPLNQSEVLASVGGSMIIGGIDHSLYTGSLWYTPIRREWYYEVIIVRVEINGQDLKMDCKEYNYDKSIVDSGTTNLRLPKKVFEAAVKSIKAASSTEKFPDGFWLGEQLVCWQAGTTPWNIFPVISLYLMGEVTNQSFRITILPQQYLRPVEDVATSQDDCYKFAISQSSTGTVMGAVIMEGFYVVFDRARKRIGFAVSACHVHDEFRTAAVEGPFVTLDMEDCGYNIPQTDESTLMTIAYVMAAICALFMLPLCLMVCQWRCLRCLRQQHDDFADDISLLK

Row | SMILES | % Inhibition (FS) (0.3 μM test compound) [%] | % Inhibition (FS) (1 μM test compound) [%] | % Inhibition (FS) (3 μM test compound) [%] | % Inhibition (FS) (0.3 μM compound, FS1 substrate) [%] | % Inhibition (FS) (1 μM compound, FS1 substrate) [%] | % Inhibition (FS) (3 μM compound, FS1 substrate) [%] | % Inhibition (FS) (10 μM test compound) [%] | % Inhibition (FS) (3 μM test compound, 3 µM)
1 | CC1CCN(C(=O)CCCC(CCC(=O)N2CCC(C)CC2)N2Cc3cc(Oc4ccccc4)ccc3N=C2N)CC1 (stereo not drawn) [Compound 532] | <30 | <30 | 68 |  |  |  |  | 
2 | COc1ccccc1-c1ccc2c(c1)CN(CCNC(=O)CCN)C(N)=N2 [Compound 493] | <30 | <30 | 49 |  |  |  |  | 
3 | CCCC(CCC)C(=O)N1CCCC(N2Cc3cc(Oc4ccccc4)ccc3N=C2N)C1 (stereo not drawn) [Compound 612] | <30 | 34 | <30 |  |  |  |  | 
4 | CC1CCC(NC(=O)c2cccc(CN3Cc4cc(Oc5ccccc5)ccc4N=C3N)c2)CC1 (stereo not drawn) [Compound 213] | <30 | <30 | <30 |  |  |  |  | 
5 | CN(C(=O)c1cccc(CN2Cc3cc(-c4ccc(C5CCCCC5)cc4)ccc3N=C2N)c1)C1CCCCC1 [Compound 267] | <30 | 39 | 38 |  |  |  |  | 
6 | CCCCCC(CCC(=O)NC1CCCCCC1)N1Cc2cc(Oc3ccccc3)ccc2N=C1N (stereo not drawn) [Compound 150] | <30 | <30 | 90 |  |  |  |  | 
7 | Cc1cc(C(=O)NCCN2Cc3cc(-c4cccc(C(F)(F)F)c4)ccc3N=C2N)c(C)o1 [Compound 590] | <30 | <30 | <30 |  |  |  |  | 
8 | NC1=Nc2ccc(Oc3ccccc3)cc2CN1Cc1cccc(C(=O)N2CCCC3CCCCC32)c1 (stereo not drawn) [Compound 212] | <30 | <30 | 32 |  |  |  |  | 
9 | COc1cccc(Nc2ccc3c(c2)CN(Cc2cccc(C(=O)N(C)C4CCCCC4)c2)C(N)=N3)c1 [Compound 433] | <30 | 33 | 88 |  |  |  |  | 
10 | CNC(=O)c1ccccc1Sc1ccc2c(c1)CN(Cc1cccc(C(=O)N(C)C3CCCCC3)c1)C(N)=N2 [Compound 416] | <30 | <30 | −3 |  |  |  |  | 
11 | CN(C(=O)c1cccc(CN2Cc3cc(Oc4cccnc4)ccc3N=C2N)c1)C1CCCCC1 [Compound 230] | <30 | 33 | <30 |  |  |  |  | 
12 | N#Cc1cccc(C(=O)NCCN2Cc3cc(-c4cncnc4)ccc3N=C2N)c1 [Compound 567] | <30 | <30 | <30 |  |  |  |  | 
13 | NC1=Nc2ccc(Oc3ccccc3)cc2CN1CCNC(=O)CCc1ccccc1 [Compound 155] |  |  | <30 |  |  |  | 49 | 
14 | CN(C(=O)c1cccc(CN2Cc3cc(OC4CCCC4)ccc3N=C2N)c1)C1CCCCC1 [Compound 520] | <30 | <30 | 33 |  |  |  |  | 
15 | NC1=Nc2ccc(Oc3ccccc3)cc2CN1Cc1cccc(C(=O)N2CCCCC2)c1 [Compound 443] | <30 | 39 | 67 |  |  |  |  | 
16 | NC1=Nc2ccc(Oc3ccccc3)cc2CN1C1CCN(C(=O)C2CCCC2)C1 (stereo not drawn) [Compound 120] |  |  | <30 |  |  |  | 34 | 
17 | CC(C)[C@@H](CCC(=O)N(C)C1CCCCC1)N1Cc2cc(Oc3ccccc3)ccc2N=C1N [Compound 444] | <30 | <30 | 30 |  |  |  |  | 
18 | CN(C(=O)c1cccc(C(CC2CCCCC2)N2Cc3cc(Oc4ccccc4)ccc3N=C2N)c1)C1CCCCC1 (stereo not drawn) [Compound 310] | <30 | <30 | 57 |  |  |  |  | 
19 | CC(C)Oc1ccc2c(c1)CN(Cc1cccc(C(=O)N(C)C3CCCCC3)c1)C(N)=N2 [Compound 519] | <30 | <30 | <30 |  |  |  |  | 
20 | CC(C)(C)OC(=O)NCC(C1CCCCC1)N1Cc2cc(Oc3ccccc3)ccc2N=C1N (stereo not drawn) [Compound 257] | 67 | 105 | 111 |  |  |  |  | 
21 | COc1ccccc1-c1ccc2c(c1)CN(CCNC(=O)C1CCN(C(C)=O)CC1)C(N)=N2 [Compound 491] | <30 | <30 |  |  |  |  |  | 44% and <30%
22 | COc1ccc(Nc2ccc3c(c2)CN(Cc2cccc(C(=O)N(C)C4CCCCC4)c2)C(N)=N3)cc1 [Compound 434] | <30 | <30 | <30 |  |  |  |  | 
23 | NC1=Nc2ccc(Oc3ccccc3)cc2CN1Cc1cccc(C(=O)N2CCC3CCCCC3C2)c1 (stereo not drawn) [Compound 193] | <30 | 34 | 67 |  |  |  |  | 
24 | NC1=Nc2ccc(Oc3ccccc3)cc2CN1C1CCN(C(=O)C2CCCCC2)C1 (stereo not drawn) [Compound 119] |  |  | 42 |  |  |  | 75 | 

The next lines start with the values.

Row | % Inhibition (FS) (0.3 μM test compound) [%] | % Inhibition (FS) (1 μM test compound) [%] | % Inhibition (FS) (3 μM test compound) [%] | % Inhibition (FS) (0.3 μM compound, FS1 substrate) [%] | % Inhibition (FS) (1 μM compound, FS1 substrate) [%] | % Inhibition (FS) (3 μM compound, FS1 substrate) [%] | % Inhibition (FS) (10 μM test compound) [%] | % Inhibition (FS) (3 μM test compound, 3 µM) | SMILES
25 |  |  |  | 8 | 35 | 89 |  |  | CN(C(=O)CC[C@@H](C1CCCCC1)N1Cc2ccc(Oc3ccccc3)cc2N=C1N)C1CCCCC1 [Compound 754]
26 |  |  |  | 46 | 79 | 105 |  |  | NC1=Nc2ccc(Oc3ccccc3)cc2CN1[C@@H](CCC(=O)N[C@@H](CO)C(=O)O)C1CCOCC1 [Compound 771]
27 | 63 | 86 | 105 |  |  |  |  |  | Cc1ccccc1-c1ccc2c(c1)CN(CCNC(=O)C(C)(C)C)C(N)=N2 [Compound 660]
28 |  |  |  | 31 | <30 | 81 |  |  | COc1ccccc1-c1ccc2c(c1)CN([C@@H](CCC(=O)N(C)Cc1cc(-c3ccccc3)on1)C1CCCCC1)C(N)=N2 [Compound 719]
29 |  |  |  | 69 | 97 |  |  |  | COC(=O)C(COCc1ccccc1)N(C)C(=O)CCC(C1CCCCC1)N1Cc2cc(Oc3ccccc3)ccc2N=C1N (stereo not drawn) [Compound 780]
30 |  |  |  | <30 | <30 | 32 |  |  | CCCCC(CC)C(=O)NCCN1Cc2cc(-c3ccc4ccccc4c3)ccc2N=C1N (stereo not drawn) [Compound 669]
31 | 45 | 79 | 104 |  |  |  |  |  | CCCCC(CC)C(=O)NCCN1Cc2cc(-c3ccccc3Cl)ccc2N=C1N (stereo not drawn) [Compound 655]
32 | 46 | 82 | 101 |  |  |  |  |  | CC(C)(C)C(=O)NCCN1Cc2cc(-c3ccccc3Cl)ccc2N=C1N [Compound 653]
33 |  |  |  | <30 | <30 | <30 |  |  | NC1=Nc2ccc(C3=CCCCC3)cc2CN1CCNC(=O)C1CCC(C(F)(F)F)CC1 (stereo not drawn) [Compound 704]
34 |  |  |  | 68 | 98 |  |  |  | Cc1ccccc1-c1ccc2c(c1)CN(CCNC(=O)CCC(C)C)C(N)=N2 [Compound 661]
35 |  |  |  | 67 | 100 |  |  |  | CC(CC(=O)NCCN1Cc2cc(-c3ccccc3F)ccc2N=C1N)C(F)(F)F (stereo not drawn) [Compound 681]
36 |  |  |  | <30 | 44 | 89 |  |  | CN(C(=O)CCC(C1CCCCC1)N1Cc2cc(Oc3ccccc3)ccc2N=C1N)C1CCC(C(=O)OCc2ccccc2)CC1 (stereo not drawn) [Compound 760]
37 | 43 | 69 | 100 |  |  |  |  |  | CCCC(=O)NCCN1Cc2cc(-c3ccccc3C)ccc2N=C1N [Compound 659]
